Assay results as given in publication PMC10033154 (Journal of Molecular Structure, 2023).

Target: SARS-CoV-2 3CL protease (Severe acute respiratory syndrome coronavirus 2, UniProt P0DTD1)
Assay: FRET enzyme activity inhibition assay of SARS-CoV-2 3CLpro
Assay type: biochemical

With `COc1ccc(C=C[N+](=O)[O-])cc1OC` [compound f, 3,4-dimethoxyl-β-nitrostyrene] the IC50 was 5.07 µM.
